Results published in patent publication US20250382631A1, “PROTAC-CID SYSTEMS FOR USE IN MULTIPLEX GENE REGULATION” (William Marsh Rice University, priority 2022, published 2025).

How the values were obtained:
[1] = tested on: luciferase expression in the liver of FVB mice injected with Virus a and Virus b; assay: In vivo PROTAC-CID gene activation via AAV, IVIS bioluminescence imaging
Method: AAV production and Mouse for in vivo delivery. […] FVB mice were purchased from the Jackson Laboratory.
IVIS imaging system and quantification. Luciferase […] intensity was measured by the IVIS imaging system (PerkinElmer). Mice were anesthetized with a mixture of isoflurane and oxygen. and then intraperitoneally (i.p.) injected with D-luciferin (15 mg/ml, GoldBio no. LUCNA-100). 5 mins after the D-luciferin injection, mice were imaged with IVIS imaging system. Quantitative analysis of imaging signals (luminescence counts) was processed by Living Imaging software (PerkinElmer).

[2] = tested on: endogenous BRD4 (BRD4S, BRD4L); assay: Immunoblot of endogenous BRD4 in HEK293T cells; format: cell-based, human; conditions: MZ1 20 nM and 100 nM, 48 h, HEK293T with MZ1 PROTAC-CID, FIG. 22
Excerpt: Immunoblots and RT-qPCR. Mice liver tissues or culture cells were lysed in RIPA buffer (Abcam no. ab156034) supplemented with phosphatase inhibitor (Thermo Fisher Scientific no. PIA32957) and protease inhibitors (Fishers cientific no. A32965). Lysates were resolved by 10% Tris-glycine SDS-PAGE, transferred to PVDF membrane (Bio-Rad no. 1620177), and blotted with antibodies BRD4 (Abcam, ab128874), GAPDH (Cell Signaling Technology, 2118L), luciferase (ABclonal, requested), Ran (ABclonal, A0976), Hsp90 (Cell Signaling Technology, 4874). Images were acquired using LumiQuant AC600 (Acuronbio Technology Inc), quantification analysis was processed by ImageJ software. Trizol reagent (Sigma no. T9424) was used to extract total RNA from liver. RNAs were purified using RNeasy Mini kit (QIAGEN no. 4106). The quality and concentration of total RNA were checked on NanoDrop™ 2000/2000c Spectrophotometers (Thermo Fisher Scientific no. ND2000LAPTOP). Reverse transcription of total RNA was performed using a Applied Biosystems™ High-Capacity cDNA Reverse Transcription Kit (Thermo Fisher Scientific no. 4368813) and qPCR was conducted with SYBR Green Master Mix (Abclonal no. RK21203) on QuantStudio 6 Real-time PCR system (Thermo Fisher Scientific).

[3] = tested on: Cre-mediated GFP expression in HEK293T cells; assay: Inducible Cre site-specific DNA recombination, LoxP-STOP-LoxP-GFP reporter; format: cell-based, human
Method: Fluorescence assay using flow cytometry analysis. Cells were treated with 0.05% Trpsin EDTA (Thermo Fisher Scientific no. 25300054) or TrypLE (Thermo Fisher Scientific no. 12605028) after transfection and centrifuged at 3000 g for 5 min. Supernatant was removed and the cell pellet was resuspended with 200 μL phosphate buffered saline (PBS) without calcium and magnesium (Thermo Fisher Scientific no. 10010023). Cells were transferred into 12×75 mm flow tubes (Global Scientific no. 110410). Cells were analyzed by MA900 flow cytometry (SONY). 405 nm laser (FL6 filter) was used for testing the BFP channel. 488 nm (FL1 filter) was used for testing the EYFP and GFP channel. Automated alignment using Automatic Setup Beads kit (SONY no. LE-B3001) is performed before running samples. In FIGS. 3A, 3B, and 17, experiments were performed under 2% FSC, 17% BSC, 24% FL1. In FIG. 18, experiments were performed under 2% FSC, 17% BSC, 27% FL1. All the other experiments were performed under 2% FSC, 17% BSC, 24% FL1 and 27% FL6. Flow cytometry data was processed and analyzed by FlowJo 10. Events were first gated with forward scatter-Area (FSC-A) and side scatter-Area (SSC-A) to select viable cells and remove the debris and dead cells. Cells were further gated with FSC-A and FSC-Height (FSC-H) for selecting single cells. The mean intensity of the reporter fluorescent protein (BFP and EYFP) in viable and single cell populations were calculated by FlowJo 10 as the mean of FL6-A and FL1-A. When calculating the fold change of relative fluorescence units (RFU), the relative fluorescence units of EYFP was calculated by dividing the mean of fluorescence intensity of EYFP with the mean of BFP fluorescence intensity for normalization as the following formula: […]
Transfection and microscopy. […]

| SMILES | increase of the luciferase expression in the liver compared with the group without MZ1 ([1]; 10 mg/kg MZ1 intraperitoneally, 25 days after AAV, imaging 6 h post-MZ1, FIG. 4E) | Fluc expression after second MZ1 injection ([1]; second injection ten days after the first, 50 mg/kg i.p., FIGS. 4G and 4H) | degradation of endogenous BRD4 isoforms [2] | GFP signal, two-layer genetic circuit driving Cre ([3]; 100 nM dTAG-13 or 1 μM dBRD9, 2 days, FIGS. 3A and 17) | GFP expression, three-layer circuit (Dre, Rox-STOP-Rox-Cre) ([3]; FIG. 3B) |
| --- | --- | --- | --- | --- | --- |
| Cc1ncsc1-c1ccc(CNC(=O)[C@@H]2C[C@@H](O)CN2C(=O)[C@@H](NC(=O)COCCOCCOCCNC(=O)C[C@@H]2N=C(c3ccc(Cl)cc3)c3c(sc(C)c3C)-n3c(C)nnc32)C(C)(C)C)cc1 [MZ1] | ~7 fold | elevated expression of Fluc with a comparable gene activation level as the first administration | only observed the degradation of the short isoform of BRD4 (BRD4S), not the conventional long isoform BRD4 (BRD4L) |  |  |
| CC[C@H](C(=O)N1CCCC[C@H]1C(=O)O[C@H](CCc1ccc(OC)c(OC)c1)c1ccccc1OCC(=O)NCCCCCCOc1cccc2c1C(=O)N(C1CCC(=O)NC1=O)C2=O)c1cc(OC)c(OC)c(OC)c1 (some centres unmarked) [dTAG-13] |  |  |  | strong GFP signal | robust GFP expression only in the presence of dTAG-13 |
